Measurements reported in US6403606B1, “Thienopyridine derivatives and their use” (Takeda Chemical Industries Ltd., priority 1996, dated 2002).

| SMILES | melting point [°C] |
| --- | --- |
| CCOC(=O)c1c(CN(CC)CC)nc2sc3c(c2c1-c1ccc(OC)c(OC)c1)CCN(S(=O)(=O)c1ccccc1)C3 [Example 9A, ethyl 7-benzenesulfonyl-2-(N,N-diethylaminomethyl)-4-(3,4-dimethoxyphenyl)-5,6,7,8-tetrahydrothieno[2,3-b:5,4-c′]dipyridine-3-carboxylate] | 161 to 162 |
| COc1ccc(-c2c(Cl)c(CNC3CC3)nc3sc4c(c23)CCN(Cc2ccccc2)C4)cc1OC [Example 5B, 7-benzyl-3-chloro-2-(cyclopropylaminomethyl)-4-(3,4-dimethoxyphenyl)-5,6,7,8-tetrahydrothieno[2,3-b:5,4-c′]dipyridine] | 131 to 132 |
| CCOC(=O)c1c(Cn2cncn2)nc2sc3c(c2c1-c1ccc(OC)c(OC)c1)CCNC3 [Example 21A, ethyl 4-(3,4-dimethoxyphenyl)-5,6,7,8-tetrahydro-2-(1,2,4-triazol-1-ylmethyl)thieno[2,3-b:5,4-c′]dipyridine-3-carboxylate] | 164 to 165 |
| CCC(C)(C)NCc1nc2sc3c(c2c(-c2ccc(OC)c(OC)c2)c1Cl)CCN(Cc1ccccc1)C3 [Example 4B, 2-(tert-amylaminomethyl)-7-benzyl-3-chloro-4-(3,4-dimethoxyphenyl)-5,6,7,8-tetrahydrothieno[2,3-b:5,4-c′]dipyridine] | 128 to 129 |
| CCOC(=O)c1c2c(cn1CN(CC)CC)C1=C(NC(C(=O)OCc3ccccc3)CC1)[SH]2c1ccc(OC)c(OC)c1 (stereo not drawn) [Example 16A, ethyl 2-benzyloxycarbonyl-8-(3,4-dimethoxyphenyl)-6-diethylaminomethyl-2,3-dihydro-1H-pyrrolo[3′,4′:4,5]-thieno[2,3-b]pyridine-7-carboxylate] | 142 to 143 |

Next, values leading:

| melting point [°C] | SMILES |
| --- | --- |
| 195 to 197 | CCOC(=O)c1c(CCn2cncn2)nc2sc3c(c2c1-c1ccc(OC)c(OC)c1)CCN(C(=O)c1ccc(Cl)cc1)C3 [Example 26A, ethyl 7-(4-chlorobenzoyl)-4-(3,4-dimethoxyphenyl)-5,6,7,8-tetrahydro-2-[2-(1,2,4-triazol-1-yl)ethyl]thieno[2,3-b:5,4-c′]dipyridine-3-carboxylate] |
| 193 to 194 | CCOC(=O)c1c(Cn2cncn2)nc2sc3c(c2c1-c1ccc(OC)c(OC)c1)CCN(C(=O)c1ccccc1)C3 [Example 20A, ethyl 7-benzoyl-4-(3,4-dimethoxyphenyl)-5,6,7,8-tetrahydro-2-(1,2,4-triazol-1-ylmethyl)thieno[2,3-b:5,4-c′]dipyridine-3-carboxylate] |
| 179 to 181 | CCOC(=O)c1c(CN(CC)CC)nc2sc3cnccc3c2c1-c1ccc(O)c(OC)c1 [Example 51A, ethyl 2-diethylaminomethyl-4-(4-hydroxy-3-methoxyphenyl)thieno[2,3-b:5,4-c′]dipyridine-3-carboxylate] |
| 118 to 119 | CCOC(=O)c1c(CCCCn2cncn2)nc2sc3cnccc3c2c1-c1ccc(OC)c(OC)c1 [Example 30A, ethyl 4-(3,4-dimethoxyphenyl)-2-[4-(1,2,4-triazol-1-yl)butyl]thieno[2,3-b:5,4-c′]dipyridine-3-carboxylate] |
| 112 to 114 | CCOC(=O)c1c(CN(CC)CC)nc2sc3c(c2c1-c1ccc(CC)cc1)CCN(C(=O)Nc1ccccc1)C3 [Example 36A] |
| 228 to 230 | COc1ccc(-c2c(Cl)c(CN3CCCC3=O)nc3sc4cnccc4c23)cc1OC [Example 36B, 3-chloro-4-(3,4-dimethoxyphenyl)-2-(2-oxopyrrolidin-1-ylmethyl)thieno[2,3-b:5,4-c′]dipyridine] |
| 165 to 166 | COc1ccc(-c2c(Cl)c(Cn3cncn3)nc3sc4c(c23)CCN(Cc2ccccc2)C4)cc1OC [Example 26B, 7-benzyl-3-chloro-4-(3,4-dimethoxyphenyl)-5,6,7,8-tetrahydro-2-(1,2,4-triazol-1-ylmethyl)thieno[2,3-b:5,4-c′]dipyridine] |
